Measured values as given in paper PMC12192727, “Strategies to Develop Na,K-ATPase-α4 Inhibitors as Male Contraceptives” (International Journal of Molecular Sciences, 2025).
Like-named read-outs stand apart in the source and are kept apart here.

Experiments:
NKAα4 = target: T1, NKAα4 (Rattus norvegicus, UniProt Q64541); assay: Na,K-ATPase activity assay, α4β1 expressed in Sf9 insect cells; type: biochemical
T1 construct: made in house; host or cells: Sf9 insect cells (baculovirus infection), cell homogenates
T1 sequence (Q64541 whole entry, other chains not shown): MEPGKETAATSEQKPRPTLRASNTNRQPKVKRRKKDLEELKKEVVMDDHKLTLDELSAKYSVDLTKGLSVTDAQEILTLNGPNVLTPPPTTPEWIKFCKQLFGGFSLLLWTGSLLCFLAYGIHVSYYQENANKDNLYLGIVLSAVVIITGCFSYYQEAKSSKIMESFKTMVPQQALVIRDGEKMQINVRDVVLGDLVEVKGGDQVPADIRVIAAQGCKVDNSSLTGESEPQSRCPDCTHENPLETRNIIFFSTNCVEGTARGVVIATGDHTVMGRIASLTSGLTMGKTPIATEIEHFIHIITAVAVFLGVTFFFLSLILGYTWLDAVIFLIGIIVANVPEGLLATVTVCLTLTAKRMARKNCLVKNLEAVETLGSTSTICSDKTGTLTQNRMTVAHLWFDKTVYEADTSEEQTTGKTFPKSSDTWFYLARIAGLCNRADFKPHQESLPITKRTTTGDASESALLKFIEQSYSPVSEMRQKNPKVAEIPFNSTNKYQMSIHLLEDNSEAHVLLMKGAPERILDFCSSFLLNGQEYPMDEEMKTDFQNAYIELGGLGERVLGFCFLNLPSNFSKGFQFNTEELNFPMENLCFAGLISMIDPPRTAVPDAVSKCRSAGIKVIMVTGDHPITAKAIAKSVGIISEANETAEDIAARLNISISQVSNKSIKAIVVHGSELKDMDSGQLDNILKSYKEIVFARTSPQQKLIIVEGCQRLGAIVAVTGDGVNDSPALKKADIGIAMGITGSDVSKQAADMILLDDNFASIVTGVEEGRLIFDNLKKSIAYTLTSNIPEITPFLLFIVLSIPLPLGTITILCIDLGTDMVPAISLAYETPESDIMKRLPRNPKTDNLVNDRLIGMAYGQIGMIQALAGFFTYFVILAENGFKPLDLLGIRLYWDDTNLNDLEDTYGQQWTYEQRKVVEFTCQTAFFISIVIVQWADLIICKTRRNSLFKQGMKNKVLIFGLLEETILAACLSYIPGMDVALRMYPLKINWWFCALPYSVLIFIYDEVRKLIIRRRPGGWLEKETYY
Description: The NKA α1 and α4 isoforms were expressed in Sf9 insect cells as previously described. Briefly, cells were cultured in suspension at 27 °C in Grace’s medium (JRH Biosciences, Lenexa, KS, USA) with 3.3 g/L of lactalbumin hydrolysate and 3.3 g/L of yeastolate and supplemented with 10% (v/v) fetal bovine serum, 100 units/mL of penicillin, 100 μg/mL of streptomycin, and 0.25 μg/mL of fungizone. For infections, cells were placed on 150 mm Petri dishes and infected with baculoviruses coding for the NKA α1β1 and α4β1 isozymes. Three days after infection, cells were scraped from the culture plates, centrifuged at 1500× g for 10 min, and washed twice in 10 mM imidazole hydrochloride (pH 7.5) and 1 mM EGTA (suspension buffer). Cells were then placed in a suspension buffer plus the addition of 0.32 M sucrose and stored at −20 °C or directly used for assays.
The Na,K-ATPase activity of insect cell homogenates was determined by measuring the initial rate of release of ^32Pi from γ[^32P]-ATP as described. The incubation medium (0.25 mL final volume) contained 120 mM NaCl, 30 mM KCl, 3 mM MgCl2, 0.2 mM EGTA, 30 mM Tris-HCl (pH 7.4), and different concentrations of the corresponding compounds. The assay was started by the addition of ATP with 0.2 μCi γ[^32P]-ATP (2 mM final concentration). After 30 min of incubation at 37 °C, the reaction was stopped with trichloroacetic acid, and 5% ammonium molybdate in 4 N H2SO4 was used to complex the ^32Pi released in the Na,K-ATPase reaction. The phosphomolybdate was extracted with isobutanol as described, and 170 μL of the organic phase was taken and subjected to liquid scintillation counting. Enzymatic activity was determined as the difference in ATP hydrolysis in the absence and presence of 1 mM ouabain.
Figure 6 Selectivity of 13 and 45 on NKAα4 over the NKAα1 isoform. […] The hydrolysis of ATP in the presence of saturating concentrations of Na^+, K^+, and Mg^2+ was measured using γ[^32P]-ATP. The curves represent the best fit of the experimental data to a single population of binding sites. Each value is the mean ± SEM of three independent experiments.

[1] = Metabolic stability in rat hepatocytes; type: in vitro ADME; conditions: rat hepatocytes
Description: (§1) The in vitro metabolic half-life (t1/2) is calculated using the slope of the log−linear regression from the percentage of the parent compound remaining versus the time relationship (κ). The experimental details are reported in the Supporting Information (Tables S6 and S7).

rat hepatocytes = assay: Metabolic stability in rat hepatocytes; type: in vitro ADME
Description: as §1

mouse sperm = assay: Sperm motility after intraperitoneal administration to mice; type: in vivo; conditions: intraperitoneal 40 mg/kg for three days
Description: To determine whether our compounds had in vivo activity, we tested the effect of 45 after intraperitoneal administration to mice. Compound 45 was injected at a dose of 40 mg/kg for three days. This procedure is based on our previous protocol used for ouabain derivatives. After treatment for 3 days, the animals were sacrificed, sperm was isolated from the cauda epididymis, and sperm motility was assessed using CASA. Compound 45 inhibited total sperm motility by approximately 60% (Figure 9A).
Compound 45 was administered to mice by intraperitoneal injection at a dose of 40 mg/kg of body weight for three days. This protocol was used based on our previous results. At day 3 of treatment, the animals were sacrificed, and sperm was collected from the caudal section of the epididymis. Sperm was incubated under non-capacitating and capacitating conditions, and total and hyperactive sperm motility was determined using CASA.
Figure 9 Effect of compound 45 on total (A) and hyperactive (B) sperm motility in mice in vivo. 45 was administered via intraperitoneal injection at a dosage of 40 mg/kg of body weight for 3 days. Total and hyperactive sperm motility was assessed using sperm from the cauda epididymis. Hyperactive motility was evaluated after incubating the cells in a medium that supports sperm capacitation for 1 h. Sperm motility was analyzed using CASA. […]

[2] = α4β1 in Sf9 insect cells, ± SEM of three experiments

C[C@]12CC[C@H]3[C@@H](CC=C4C[C@@H](O)CC[C@@]43C)[C@@H]1CC[C@@H]2c1cn(Cc2ccccc2)nn1 [Compound 13, (3S,8S,9S,10R,13S,14S,17S)-17-(1-Benzyl-1H-1,2,3-triazol-4-yl)-10,13-dimethyl-2,3,4,7,8,9,10,11,12,13,14,15,16,17-tetradecahydro-1H-cyclopenta[a]phenanthren-3-ol]
IC50 (NKAα4): 0.1 nM | NKA Isoform Specificity (IC50 M) NKAα4 (NKAα4; [2]): nanomolar range

CC12CCC(=O)C=C1CCCC2n1cc(-c2ccccc2)nn1 (stereo not drawn) [Compound 45, 4a-Methyl-5-(4-phenyl-1H-1,2,3-triazol-1-yl)-4,4a,5,6,7,8-hexahydronaphthalen-2(3H)-one]
NKA Isoform Specificity (IC50 M) NKAα4 (NKAα4; [2]): nanomolar range | IC50 (NKAα4; α4β1 in Sf9 insect cells, ± SEM of three experiments, read-out: NKA Isoform Specificity (IC50 M) NKAα4): 2.7 nM | hepatocyte CLint at 1 μM ([1]; read-out: In vitro Clint): 72.2 µL/min/1e6 cells | half-life at 1 µM ([1]; rat, hepatocytes, read-out: In vitro T1/2): 19.2 min | CLint scaled at 1 µM ([1]; rat, hepatocytes, read-out: Scale-up Clint): 338 mL/min/kg | Remaining Percentage (%) (rat hepatocytes; rat boiled hepatocytes, 0 min): 100.00% | Remaining Percentage (%) (rat hepatocytes; rat boiled hepatocytes, 15 min): 101.65% | Remaining Percentage (%) (rat hepatocytes; rat boiled hepatocytes, 30 min): 104.87% | Remaining Percentage (%) (rat hepatocytes; rat boiled hepatocytes, 60 min): 104.47% | Remaining Percentage (%) (rat hepatocytes; rat boiled hepatocytes, 90 min): 104.04% | Remaining Percentage (%) (rat hepatocytes; rat boiled hepatocytes, 120 min): 104.50% | Hepatic Extraction Ratio (E) (rat hepatocytes; rat hepatocytes): 0.86 | Predicted hepatic CL (rat hepatocytes; rat hepatocytes): 47.44 mL/min/kg | Remaining Percentage (%) (rat hepatocytes; rat hepatocytes, 0 min): 100.00% | Remaining Percentage (%) (rat hepatocytes; rat hepatocytes, 15 min): 51.55% | Remaining Percentage (%) (rat hepatocytes; rat hepatocytes, 30 min): 26.35% | Remaining Percentage (%) (rat hepatocytes; rat hepatocytes, 60 min): 9.77% | Remaining Percentage (%) (rat hepatocytes; rat hepatocytes, 90 min): 3.36% | Remaining Percentage (%) (rat hepatocytes; rat hepatocytes, 120 min): 1.25% | Metabolic Stability in Hepatocytes (60 min), compound remaining (rat hepatocytes; rat, 60 min): 10% | Hyperactive sperm motility in vivo (mouse sperm; capacitating medium 1 h): reduced | Inhibition of total sperm motility in vivo (mouse sperm; cauda epididymis sperm, CASA): approximately 60%
